Structures can show the parent of a compound that is named as a salt. Where two headings read alike, the source gives them in different places.
Key:
[1] = system: apomorphine-induced stereotyped behavior; test: Activity of reducing the apomorphine-induced stereotyped behavior (Experiment I); format: in vivo, rat (male, Wistar); conditions: sc, read-out: ED50, activity of reducing apomorphine-induced stereotyped behavior
[2] = system: methamphetamin-induced stereotyped behavior; test: Activity of reducing the methamphetamin-induced stereotyped behavior (Experiment II b); format: in vivo, rat (male, Wister); conditions: sc, read-out: ED50, activity of reducing the methamphetamin-induced stereotyped behavior
Description: (b). Activity of reducing the methamphetamin-induced stereotyped behavior:
A test sample was administered subcutaneously to the rats, after 30 minutes, 5 mg./kg. of methamphetamine was administered intraperitoneally, and then after 60 minutes and 90 minutes since then, the symptom of the methamphetamin-induced stereotyped behavior was observed. From the relation of the ratio of inhibition and the amount of the test sample used, ED50 was determined.

[3] = system: conditioned avoidance response; test: Activity of reducing the conditioned avoidance response, shuttle box (Experiment II a); format: in vivo, rat (male, Wister); conditions: sc, read-out: ED50, activity of reducing the conditioned avoidance response
Description: (a) Activity of reducing the conditioned avoidance response:
By a shuttle box method using rats (male, Wister, about 300 g.), a test sample was administered subcutaneously to the rats, after 30 minutes, a conditioned stimulation (buzzer noise for at longest 5 seconds) was applied, and then the avoidance response was observed. Then, from the relation of the ratio of inhibition of avoidance response and the amount of the test sample used, ED50 was determined. In addition, the training of applying an electric stimulation (A.C. 40 volts) as an unconditioned stimulation from a grid on a floor for at longest 5 seconds was applied to rats at 20 times/day for 6 days and the rats showing the ratio of avoidance response of higher than 80% were used in the experiment.

[4] = Cataleptogenic activity (Experiment III a); parameters: species or system mouse (male, ICR); conditions: in vivo, sc; mouse, 30 min, fore-limbs hung on horizontal rod for 30 second
Description: (a) Cataleptogenic activity:
By referring to the method by Curvoisier et al (Psychotropic drugs, 373(1957)), a test sample was subcutaneously administered to mice (male, ICR, 8 weeks age) and after 30 minutes since then, the both fore-limb was forcibly hung on a horizontal metallic rod of 2 mm. diameter placed at a height of 6 cm. and when the mouse was kept in that state for 30 second, the activity of the mouse was considered to be a positive cataleptogenic activity. From the relation of the ratio of inhibition and the amount of the test sample used, ED50 was determined.

[5] = Acute toxicity, up-down method (Experiment III b); conditions: in vivo, iv, mouse
Description: A test sample was administered to mice (male, ICR, 8 week age) by an intravenous injection and then LD50 was determined by an up-down method.

[6] = according to the Dutch patent; cited from earlier work
[7] = rat, s.c., 30 min before 1.25 mg/Kg apomorphine i.v., observed after 5, 10, 20 min
[8] = rat, s.c., 30 min before 5 mg./kg. methamphetamine i.p., observed after 60 and 90 min
[9] = rat, s.c., 30 min before conditioned stimulation, shuttle box

Row | SMILES | ED50 [1, 7] [mg/kg] | ED50 [2, 8] [mg/kg] | ED50 [3, 9] [mg/kg] | other results
1 | CCN(CCNC(=O)c1cc(Cl)c(N)cc1OC)Cc1ccc(Cl)cc1 [N-[2-(N'-p-chlorophenylmethyl-N'-ethylamino)ethyl]-4-amino-5-chloro-2-methoxybenzamide] | 0.18 | 1 | 0.1 | –
2 | CCN(CCNC(=O)c1cc(Cl)c(N)cc1OC)Cc1ccc(OC)cc1 [N-[2-(N'-p-methoxyphenylmethyl-N'-ethylamino)ethyl]-4-amino-5-chloro-2-methoxybenzamide] | 0.3 | – | – | –
3 | COc1cc(C(=O)NCCN(C)Cc2ccccc2)cc(OC)c1OC [N-[2-(N'-benzyl-N'-methylamino)ethyl]-3,4,5-trimethoxybenzamide, reference compound] | > 30 | – | – | –
4 | COc1cc(C(=O)NC2CCN(Cc3ccccc3)C2)cc(OC)c1OC (stereo not drawn) [N-(1-benzyl-3-pyrrolidinyl)-3,4,5-trimethoxybenzamide, reference compound] | > 10 | – | – | –
5 | CCN(CC)CCNC(=O)c1cc(Cl)c(N)cc1OC [Metoclopramide, reference compound] | 4.1 | – | – | –
6 | COc1cc(N)c(Cl)cc1C(=O)NC1CCN(Cc2ccc(Cl)cc2)C1 (stereo not drawn) [N-(1-p-chlorophenylmethyl-3-pyrrolidinyl)-4-amino-5-chloro-2-methoxybenzamide] | 0.18 | – | 0.1 | –
7 | CCN(CCNC(=O)c1cc(Cl)c(N)cc1OC)Cc1cccc(Cl)c1 [N-[2-(N'-m-chlorophenylmethyl-N'-ethylamino)ethyl]-4-amino-5-chloro-2-methoxybenzamide] | 0.3 | 1 | – | –
8 | CN(C)CCCN1c2ccccc2Sc2ccc(Cl)cc21 [Chlorpromazine, reference compound] | – | – | – | ED50 ([1]; Rattus norvegicus): 2.5 mg/kg; ED50 ([2]; Rattus norvegicus): 3 mg/kg; ED50 at 0.5 h [4]: 10 mg/kg; ED50 ([3]; Rattus norvegicus): 0.8 mg/kg; LD50 [5]: 59 mg/kg
9 | COc1cc(N)c(Cl)cc1C(=O)NCC1CCC(C)N1Cc1ccccc1 (stereo not drawn) [N-(1-benzyl-5-methyl-2-pyrrolidinylmethyl)-4-amino-5-chloro-2-methoxybenzamide] | 0.18 | 1 | 0.18 | ED50 at 0.5 h [4]: 30 mg/kg; LD50 [5]: 49 mg/kg
10 | COc1cc(N)c(Cl)cc1C(=O)NC1CCN(C2CCCCC2)C1 (stereo not drawn) [N-(1-cyclohexyl-3-pyrrolidinyl)-4-amino-5-chloro-2-methoxybenzamide, reference compound] | 1.8 | – | – | antiemetic activity (in words) [6]: strongest antiemetic activity
11 | COc1cc(N)c(Cl)cc1C(=O)NCCN(C)Cc1ccccc1 [N-[2-(N'-benzyl-N'-methylamino)ethyl]-4-amino-5-chloro-2-methoxybenzamide] | 0.54 | 3 | 0.2 | ED50 at 0.5 h [4]: 60 mg/kg; LD50 [5]: 48 mg/kg
12 | COc1cc(N)c(Cl)cc1C(=O)NC1CCN(Cc2ccccc2)C1 (stereo not drawn) [N-(1-benzyl-3-pyrrolidinyl)-4-amino-5-chloro-2-methoxybenzamide] | 0.22 | 0.72 | 0.3 | –
13 | CCN1CCCC1CNC(=O)c1cc(S(=O)(=O)CC)ccc1OC (stereo not drawn) [Sultopiride, reference compound] | 18 | – | – | –
14 | CCN(CCNC(=O)c1cc(Cl)c(N)cc1OC)Cc1ccccc1 [N-[2-(N'-benzyl-N'-ethylamino)ethyl]-4-amino-5-chloro-2-methoxybenzamide] | 0.2 | 1.8 | 0.1 | –
15 | CCN(CCNC(=O)c1cc(Cl)c(N)cc1OC)Cc1ccc(F)cc1 [N-[2-(N'-ethyl-N'-p-fluorophenylmethylamino)ethyl]-4-amino-5-chloro-2-methoxybenzamide] | 0.18 | – | – | –
16 | CCN1CCCC1CNC(=O)c1cc(S(N)(=O)=O)ccc1OC (stereo not drawn) [Sulpiride, reference compound] | > 100 | – | – | –
17 | CCN(CCNC(=O)c1cc(S(=O)(=O)CC)ccc1OC)Cc1ccc(Cl)cc1 [N-[2-(N'-p-chlorophenylmethyl-N'-ethylamino)ethyl]-3-ethylsulfonyl-6-methoxybenzamide hydrochloride] | 0.47 | 3 | – | –
18 | CCS(=O)(=O)c1ccc(OC)c(C(=O)NCC2CCC(C)N2Cc2ccccc2)c1.Cl (stereo not drawn) [N-(1-benzyl-5-methyl-2-pyrrolidinylmethyl)-5-ethylsulfonyl-2-methoxybenzamide hydrochloride] | 0.3 | 1.8 | 0.3 | –

— patent US4097487A, “Pyrrolidinyl and piperidinyl benzamide derivatives” (Yamanouchi Pharmaceutical Co., Ltd., priority 1975, dated 1978)
